Measurements: ChEMBL document CHEMBL4610056, “Development of novel small molecules for the treatment of ALS” (Bioorg Med Chem Lett, 2020)

Legend:
[1] = Activation of NF-kappaB (unknown origin); design: species or system Homo sapiens
[2] = Activation of NF-kappaB (unknown origin) relative to control; details: Homo sapiens
Homo sapiens = species on record: Homo sapiens; assay: Potency index, ratio of SRI-22818 EC50 to test compound EC50 for activation of NF-kappaB (unknown origin)

SMILES	EC50 [1]	Emax [2] [%]	EC50 ([1]; read-out: EC50) [µM]	Ratio EC50 (Homo sapiens)
COc1ccc(C(=O)c2c[nH]c3cc(Br)ccc23)cc1OC	Not Active	–	–	–
O=C(/C=C\Nc1ccccc1F)c1ccccn1	–	20	1	–
O=C(/C=C\Nc1ccccc1C(F)(F)F)c1ccc2c(c1)OCO2	–	8	3.1	–
O=C(c1ccccn1)c1c[nH]c2c(Br)cccc12	Not Active	–	–	–
Cc1cccnc1N/C=C\C(=O)c1ccccn1	–	22	0.9	–
COc1ccccc1N/C=C\C(=O)c1ccc2c(c1)OCO2	–	14	3.9	–
COc1cccnc1N/C=C\C(=O)c1ccc2c(c1)OCO2	–	12	3.3	–
O=C(/C=C\Nc1ncccc1F)c1ccccn1	–	14	0.9	–
O=C(/C=C\Nc1ccccc1F)c1ccc2c(c1)OCO2	–	22	0.32	–
O=C(c1ccccc1)c1c[nH]c2c(Br)cccc12	Not Active	–	–	–
O=C(CCNc1ccccc1Br)c1ccc2c(c1)OCO2	Not Active	–	–	–
O=C(c1ccc2c(c1)OCO2)c1ccn(-c2cccc(F)c2)c1	–	13.8	17.7	–
Cc1cccc2c(C(=O)c3ccc4c(c3)OCO4)c[nH]c12	–	23	43.2	–
O=C(/C=C\Nc1ccccc1Cl)c1ccccn1	Not Active	–	–	–
O=C(c1ccc2c(c1)OCO2)c1c[nH]c2c(Br)cccc12	–	18	21.4	–
Cc1ccc(C(=O)c2ccn(-c3ccccc3F)c2)cc1C	–	19.9	11.9	–
Cc1cccnc1N/C=C\C(=O)c1ccc2c(c1)OCO2	–	22	0.3	–
O=C(/C=C\Nc1ncccc1C(F)(F)F)c1ccc2c(c1)OCO2	–	23	0.8	–
O=C(/C=C\Nc1ncccc1C(F)(F)F)c1ccccn1	–	16	0.7	–
O=C(c1ccc2c(c1)OCO2)c1c[nH]c2cc(F)ccc12	–	8.6	4.4	–
O=C(c1ccc2c(c1)OCO2)c1ccn(-c2ccccc2Br)c1	Not Active	–	–	–
O=C(/C=C\Nc1ncccc1F)c1ccc2c(c1)OCO2	–	17	0.1	5
O=C(/C=C\Nc1ccccc1Cl)c1ccc2c(c1)OCO2	–	24	0.5	–
Cn1cc(C(=O)c2ccc3c(c2)OCO3)c2cccc(Br)c21	Not Active	–	–	–
O=C(c1ccc2c(c1)OCO2)c1c[nH]c2cc(Cl)ccc12	–	13.2	1.2	–
O=C(c1ccc(Cl)c(Cl)c1)c1ccn(-c2ccccc2F)c1	–	8.3	7.71	–

SMILES	EC50 [1]	Emax [2] [%]	EC50 ([1]; read-out: EC50) [µM]	Ratio EC50 (Homo sapiens)
COc1cccnc1N/C=C\C(=O)c1ccccn1	–	24	0.3	–
Cc1ccc(C(=O)c2c[nH]c3cc(Br)ccc23)cc1C	Not Active	–	–	–
Fc1ccccc1-n1ccc(CNc2ccc3c(c2)OCO3)c1	–	10.4	15	–
O=C(c1ccc(F)c(F)c1)c1c[nH]c2cc(Br)ccc12	Not Active	–	–	–
O=C(c1ccc2c(c1)OCO2)c1c[nH]c2cc(Br)ccc12	–	11.2	1	–
O=C(c1ccc2c(c1)OCO2)c1ccccc1Nc1ccccc1Br	Not Active	–	–	–
COc1ccccc1N/C=C\C(=O)c1ccccn1	–	8	0.2	–
O=C(c1ccc2c(c1)OCO2)c1c[nH]c2ccc(Br)cc12	–	3	4.5	–
Cc1ccccc1-n1ccc(C(=O)c2ccc3c(c2)OCO3)c1	–	10	22.4	–
O=C(/C=C\Nc1ccccc1)c1ccc2c(c1)OCO2	–	11	0.4	–
Cc1ccccc1N/C=C\C(=O)c1ccc2c(c1)OCO2	–	24	0.8	–
O=C(Nc1ccc2c(c1)OCO2)c1ccn(-c2ccccc2F)c1	–	34	11.3	–
O=C(c1ccc2c(c1)OCO2)c1ccn(-c2ccc(F)cc2)c1	–	13.2	12.9	–
O=C(c1ccc2c(c1)OCO2)c1c[nH]c2cnccc12	Not Active	–	–	–
O=C(/C=C\Nc1ccccc1C(F)(F)F)c1ccccn1	–	16	1.4	–
O=C(c1ccc2c(c1)OCO2)c1ccn(-c2ccccc2Cl)c1	–	15.1	7.8	–
O=C(/C=C\Nc1ccccc1Br)c1ccc2c(c1)OCO2	–	26	0.5	–
O=C(c1ccc2c(c1)OCO2)c1c[nH]c2c(F)cccc12	–	18	13.4	–
Cc1ccccc1N/C=C\C(=O)c1ccccn1	–	17	0.3	–
O=C(c1ccc(F)c(F)c1)c1ccn(-c2ccccc2F)c1	–	13	5.84	–
O=C(c1ccncc1)c1c[nH]c2c(Br)cccc12	Not Active	–	–	–
O=C(c1ccc(Cl)c(Cl)c1)c1c[nH]c2cc(Br)ccc12	Not Active	–	–	–
O=C(c1ccc2c(c1)OCO2)c1ccn(-c2ccccc2F)c1	–	12.5	3.21	–
O=C(c1ccc2c(c1)OCO2)c1c[nH]c2cccc(Br)c12	Not Active	–	–	–
O=C(/C=C\Nc1ccccc1Br)c1ccccn1	Not Active	–	–	–
